# Measurements published in patent publication US20050267182A1, “Urea derivatives as FLT-3 modulators” (Ambit Biosciences Corporation, priority 2003, published 2005).
# Target: T1, FLT3 (Homo sapiens, UniProt P36888)
# T1 construct: FLT3(DKIN); made in house
# T1 sequence (P36888 610-943 limits assumed): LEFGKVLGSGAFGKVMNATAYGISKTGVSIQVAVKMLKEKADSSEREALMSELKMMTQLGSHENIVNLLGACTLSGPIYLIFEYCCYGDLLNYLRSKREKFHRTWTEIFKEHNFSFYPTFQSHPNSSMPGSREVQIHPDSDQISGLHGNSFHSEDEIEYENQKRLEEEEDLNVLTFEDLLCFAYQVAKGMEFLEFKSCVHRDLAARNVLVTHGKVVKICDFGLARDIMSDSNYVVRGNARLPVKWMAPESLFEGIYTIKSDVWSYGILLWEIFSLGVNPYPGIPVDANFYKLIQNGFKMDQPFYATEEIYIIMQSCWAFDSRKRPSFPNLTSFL
# Assay: Binding constant (Kd) measurement, phage-displayed kinase competition binding assay
# Details: FLT3(DKIN) construct
# Text: Binding Constant (Kd) Measurements for Small-Molecule-Kinase Interactions
# The term “ND” represents non-determined values.
Compound,Binding Assay: FLT3(DKIN),Kd
C/C=C/C(=O)Nc1ccc(NC(=O)Nc2cc(C(C)(C)C)on2)cc1 [Compound N93],+ + +,
CC(Oc1ccc(NC(=O)Nc2cc(C(C)(C)C)on2)cc1)c1ccccc1 (stereo not shown) [Compound G17],+ + + +,
O=C(Nc1ccc(Cl)cc1)Nc1cc(C(F)(F)F)cc(Cl)n1 [Compound Z76],+ + +,
CC(C)(C)c1cc(NC(=O)Nc2ccc(C(=O)NCc3ccc4c(c3)OCO4)cc2)no1 [Compound N97],+ + +,
CC(C)(C)c1cc(NC(=O)Nc2ccc3cc4ccccc4cc3c2)no1 [Compound A18],+ + +,
Cc1ccc(CNc2ccc(NC(=O)Nc3cc(C(C)(C)C)on3)cc2)cc1 [Compound O9],+ + + +,
CC(=O)NS(=O)(=O)c1ccc(NC(=O)Nc2cc(C(C)(C)C)on2)cc1 [Compound V4],,> 10 µM
"CC(C)(C)c1cc(NC(=O)Nc2ccc(Cl)c(C(F)(F)F)c2)no1 [Compound A1, 1-(5-tert-butylisoxazol-3-yl)-3-(4-chloro-3-(trifluoromethyl)phenyl)urea]",+ + +,
CC(C)(C)c1cc(NC(=O)Nc2ccc(OCc3c(Cl)cccc3Cl)cc2)no1 [Compound G19],+ + + +,
"CC(C)(C)c1cc(NC(=S)Nc2ccc(N3CCOCC3)cc2)no1 [Compound F1, 1-(5-tert-butylisoxazol-3-yl)-3-(4-morpholinophenyl)thiourea]",,> 10 µM
CC(C)(C)c1cc(NC(=O)Nc2ccc(C(=O)NCCO)cc2)no1 [Compound N87],+ + +,
Cc1ccc(NC(=O)Nc2cc(C(C)(C)C)on2)cc1 [Compound A33],+ + + +,
CSc1ccc(NC(=O)Nc2cc(C(C)(C)C)on2)cc1 [Compound A37],+ + + +,
Cc1ccc(NC(=O)Nc2cc(C(F)(F)F)cc(Cl)n2)cc1 [Compound W1],+ + + +,
CCN(CC)CCNC(=O)c1ccc(NC(=O)Nc2cc(C(C)(C)C)on2)cc1 [Compound N102],,> 10 µM
"Cc1ccc(-n2nc(C(C)(C)C)cc2NC(=O)Nc2ccc(C(C)C)cc2)cc1 [Compound D1, 1-(3-tert-butyl-1-p-tolyl-1H-pyrazol-5-yl)-3-(4-isopropylphenyl)urea]",+ +,
Cn1nc(C(C)(C)C)cc1NC(=O)Nc1ccc(F)cc1 [Compound Z19],+ + +,
COc1ccc(NC(=O)Nc2cc(C(C)(C)C)no2)cc1 [Compound A30],+ + + +,
Cc1c(NC(=O)Nc2cc(C(C)(C)C)on2)c(=O)n(-c2ccccc2)n1C [Compound Z45],+ +,
Cc1ccc(-n2nc(C(C)(C)C)cc2NC(=O)Nc2cc(C(C)(C)C)on2)cc1 [Compound H11],+ + + +,
O=C(Nc1ccc(Br)cc1)Nc1cc(C(F)(F)F)cc(Cl)n1 [Compound Z72],+ + +,
CC(C)(C)c1cc(NC(=O)Nc2ccc(F)cc2)no1 [Compound A47],+ + +,
CC(C)(C)c1cc(N2CCCN(c3ccc(OCc4ccccc4)cc3)C2=O)on1 [Compound E2],+ + +,

Compound,Binding Assay: FLT3(DKIN),Kd
CC(C)(C)c1cc(NC(=O)Nc2ccc(C(=O)NCc3ccccc3)cc2)no1 [Compound N89],+ + +,
CC(C)(C)c1cc(NC(=O)Nc2ccc(O)cc2)no1 [Compound A31],+ + +,
Cc1ccc(-n2nc(C(C)(C)C)cc2NC(=O)Nc2ccc(OCc3ccccc3)cc2)cc1 [Compound H5],+ + + +,
CC(C)(C)c1cc(NC(=O)Nc2cc(C(C)(C)C)on2)on1 [Compound A54],+ + +,
CN1CN(c2ccc(OCc3ccccc3)cc2)C(=O)N(c2cc(C(C)(C)C)on2)C1 [Compound E4],+ + +,
CC(C)c1ccc(NC(=O)Nc2cc(C(C)(C)C)no2)cc1 [Compound A11],+ +,
CC(C)(C)c1cc(NC(=O)Nc2ccc(OC(F)F)cc2)no1 [Compound A12],+ +,
CC(C)(C)c1cc(NC(=O)Nc2ccc(NS(=O)(=O)c3ccccc3)cc2)no1 [Compound V1],+ +,
O=C(Nc1ccc(OCc2ccccc2)cc1)Nc1cc(C2CC2)nn1-c1ccccc1 [Compound H8],+ + +,
Cc1cc(NC(=O)Nc2ccc(OCc3ccccc3)cc2)n(-c2ccccc2)n1 [Compound H4],+ + +,
CCOC(=O)NN(C(=O)Nc1cc(C(C)(C)C)on1)c1ccc(OC)cc1 [Compound J13],+ + +,
COc1ccc(NC(=O)Nc2cc(C(C)(C)C)nn2-c2ccc(C)cc2)cc1 [Compound H15],+ + + +,
CC(C)(C)c1cc(NC(=O)Nc2ccc(NC(=O)C3CCCCC3)cc2)no1 [Compound N91],+ + + +,
CC(C)(C)c1cc(NC(=O)Nc2ccc(Cl)cc2Cl)no1 [Compound A7],+ + +,
CC(C)(C)c1cc(NC(=O)Nc2ccc(Cl)cc2)on1 [Compound A32],+ + +,
CC(C)(C)c1cc(NC(=O)Nc2ccc(-c3ccccc3)cc2)no1 [Compound A23],+ + + +,
COc1ccc(N(C)C(=O)N(C)c2cc(C(C)(C)C)no2)cc1 [Compound J8],,> 10 µM
CC(C)(C)c1cc(NC(=O)Nc2cccc(Cl)c2)no1 [Compound A48],+ + +,
CCCCc1ccc(NC(=O)Nc2cc(C(C)(C)C)nn2C)cc1 [Compound D12],+ + +,
Cn1nc(C2CC2)cc1NC(=O)Nc1ccc(OCc2ccccc2)cc1 [Compound H7],+ +,
Cn1nc(C(C)(C)C)cc1NC(=O)Nc1ccc(Cl)cc1 [Compound D11],+ + +,
CC(C)(C)c1cc(NC(=O)Nc2ccc(C(N)=O)cc2)no1 [Compound N86],+ + + +,
CSc1ccc(NC(=O)Nc2cc(C(C)(C)C)no2)cc1 [Compound A39],+ + +,

Compound,Binding Assay: FLT3(DKIN),Kd
CC(C)(C)c1cc(NC(=O)Nc2ccc(CC(=O)O)cc2)no1 [Compound C3],+ +,
CC(C)(C)c1cc(NC(=O)Nc2ccc(-c3nc(-c4ccc(C(F)(F)F)cc4)no3)cc2)no1 [Compound P8],+ + +,
CC(C)c1ccc(NC(=O)Nc2cc(C(C)(C)C)on2)cc1 [Compound A25],+ +,
O=C(Nc1ccc(Cl)cc1)Nc1cc(C2CC2)nn1-c1ccccc1 [Compound D10],+ + +,
CC(C)(C)c1cc(NC(=O)Nc2ccccc2)no1 [Compound A2],+ + + +,
CC(C)(C)c1cc(NC(=O)Nc2ccc(OC(F)(F)F)cc2)on1 [Compound A13],+ +,
Cc1ccc(-n2nc(C(C)(C)C)cc2NC(=O)Nc2ccc(Cl)cc2)cc1 [Compound H14],+ + + +,
CC(C)(C)c1cc(NC(=O)Nc2ccc(NC(=O)Cc3ccc(OCc4ccccc4)cc3)cc2)no1 [Compound N98],+ + +,
CC(C)(C)c1cc(NC(=O)Nc2ccc(NC(=O)c3c(Cl)cccc3Cl)cc2)no1 [Compound N94],+ + + +,
CC(C)(C)c1cc(NC(=O)Nc2ccc(NC(=O)c3c(F)cccc3C(F)(F)F)cc2)no1 [Compound N95],+ + +,
O=C(Nc1ccc(Cl)cc1)Nc1cc(C2CC2)nn1-c1ccccc1 [Compound D2],+ + + +,
COc1ccc(NC(=O)Nc2cc(C(C)(C)C)on2)cc1 [Compound A29],+ + + +,
COc1ccc(N2CCCN(c3cc(C(C)(C)C)no3)C2=O)cc1 [Compound E5],+ +,
CC(C)(C)c1cc(NC(=O)Nc2ccc(OCCN3CCOCC3)c3ccccc23)no1 [Compound K1],+ + +,
CC(C)(C)c1cc(NC(=O)Nc2ccc(Cl)cc2)no1 [Compound A27],+ + +,
Cc1ccc(S(=O)(=O)Nc2ccc(NC(=O)Nc3cc(C(C)(C)C)on3)cc2)cc1 [Compound V2],+ +,
COc1cccc(CNC(=O)Nc2cc(C(C)(C)C)on2)c1 [Compound B3],+ + + +,
C[S+]([O-])c1ccc(NC(=O)Nc2cc(C(C)(C)C)on2)cc1 (stereo not shown) [Compound A46],+ + +,
CC(C)(C)c1cc(NC(=O)Nc2ccc(Oc3ccccc3)cc2)no1 [Compound A24],+ + + +,
CC(C)(C)c1cc(NC(=O)NN2CCCCC2)no1 [Compound Z57],+ + +,
CC(C)(C)c1cc(NC(=O)Nc2ccc(S(=O)(=O)Nc3ncccn3)cc2)no1 [Compound V3],,> 10 µM
